Laboratory results taken from ChEMBL document CHEMBL1201862, “PubChem BioAssay data set” (2004).
The source made the active and inactive calls.

Key:
[1] = molecular target: T1, Tyrosine-protein phosphatase non-receptor type 7 (Homo sapiens, UniProt P35236); assay: inhibitors of human HePTP phosphatase, […], biochemical, absorbance, leukemia target (AID 521); assay type: functional
T1 sequence (P35236 whole entry): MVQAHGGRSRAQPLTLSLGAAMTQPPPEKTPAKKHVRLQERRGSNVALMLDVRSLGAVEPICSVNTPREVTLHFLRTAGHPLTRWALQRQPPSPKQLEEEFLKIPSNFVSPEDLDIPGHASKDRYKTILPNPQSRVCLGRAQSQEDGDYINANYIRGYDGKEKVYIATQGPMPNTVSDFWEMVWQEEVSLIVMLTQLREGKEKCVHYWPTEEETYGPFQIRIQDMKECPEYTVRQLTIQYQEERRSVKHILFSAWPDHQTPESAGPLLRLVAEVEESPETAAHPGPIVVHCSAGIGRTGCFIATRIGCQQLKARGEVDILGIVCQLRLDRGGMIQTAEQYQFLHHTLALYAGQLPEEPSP

[2] = molecular target: Glyceraldehyde-3-phosphate dehydrogenase (Homo sapiens, UniProt P04406)
HT-1080 = assay: cytotoxicity in HT1080 fibrosarcoma cells, cell-based, fluorescence readout (AID 620); assay type: functional; settings: Homo sapiens
cells = assay type: functional
[3] = cytotoxicity toward HT-29 cells – cell-based, CellTiter-Glo luminescence, IC50, dose response (AID 1117330); assay type: functional
[4] = NIH:OVCAR-3 ovarian cancer cell cytotoxicity, dose response, PAX8 inhibitor project, plate reader, dry powder samples (AID 743044); assay type: functional, cell-based
[5] = cytotoxicity in OVCAR4 cells, dose response, cytotoxicity control for PAX8 inhibitor project, cell-based, plate reader, dry powder, SA11 (AID 743150); assay type: functional; settings: OVCAR-4
[6] = cytotoxicity in COV362 ovarian cancer cells, dose response, cytotoxicity control for PAX8 inhibitor project, cell-based, plate reader, dry powder, SA12 (AID 743144); assay type: functional
[7] = IGROV1 ovarian cancer cell cytotoxicity, dose response, PAX8 inhibitor project, plate reader, dry powder samples (AID 743043); assay type: functional, cell-based; settings: IGROV-1
[8] = cytotoxicity dependent on PAX8, dose response, cell-based, plate reader, dry powder (AID 743049); assay type: functional
[9] = HeLa 4N DNA content increase, dose response, cell-based, IC50 (AID 1117351); assay type: functional
[10] = nonselective inhibitors of cellular cAMP signaling, dose response, counter-screen for MC4R biased antagonist project, cell-based, TR-FRET cAMP detection (AID 602305); assay type: functional;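 also: U2OS cells stimulated with forskolin near its EC80 as the cAMP inducer; potency is for inhibition of forskolin-stimulated cAMP signaling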
[11] = CellTiter-Glo luminescent dose response of DLD-1 viability loss (AID 1117352); assay type: functional
[12] = inhibitors of intracellular T. cruzi replication, confirmation, NIH3T3 host cells, beta-gal luminescence (AID 2044); assay type: functional, cell-based;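 also: intracellular parasites grown in NIH/3T3 mouse fibroblasts as host cells; luminescent beta-galactosidase reporter signal from transgenic T. cruzi replicating inside host cells; inhibitors lower the luminescence signal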
[13] = half-maximal inhibitory concentration for glucagon-like peptide-1 release, STC-1 cell line, dose-response (AID 1117345); assay type: functional, cell-based
[14] = PAX2 cell-based inhibition, dose response, selectivity assay for PAX8 inhibitor project, plate reader, dry powder samples (AID 743048); assay type: functional;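 also: HEK293 cells carrying a WT1 promoter luciferase reporter driven by expressed Pax2; potency is for inhibition of Pax2 driven reporter signal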
[15] = HeLa 2N DNA content increase, dose response, cell-based, IC50 (AID 1117349); assay type: functional
[16] = PAX5 activity inhibitors, dose response, selectivity assay for PAX8 inhibitor project, cell-based, plate reader, dry powder samples (AID 743047); assay type: functional;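 also: HEK293 cells carrying a Pax5 driven CD19 promoter luciferase reporter; potency of inhibitors that lower reporter luminescence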
[17] = Dose-response inhibition of insulin secretion in a rat insulinoma line at 5 mM glucose (AID 1117331); assay type: functional, cell-based; settings: INS-1E
[18] = cytotoxicity in COV434 cells, dose response, cytotoxicity control for PAX8 inhibitor project, cell-based, plate reader, dry powder, SA7 (AID 743145); assay type: functional
[19] = RKO cell viability reduction, dose response, CellTiter-Glo luminescence (AID 1117322); assay type: functional
[20] = Glucagon-like peptide 1 release potency, NCI-H716 cell line, dose-response, half-maximal inhibitory concentration (AID 1117344); assay type: functional, cell-based
Vero = assay: cells; assay type: functional; settings: Chlorocebus sabaeus
[21] = SNU-C1 cell viability reduction, dose response, CellTiter-Glo luminescence (AID 1117323); assay type: functional, cell-based
[22] = cytotoxicity toward HCT116 cells – cell-based, CellTiter-Glo luminescence, IC50, dose response (AID 1117332); assay type: functional; settings: HCT-116
[23] = cytotoxicity toward Colo320 cells – cell-based, CellTiter-Glo luminescence, IC50, dose response (AID 1117334); assay type: functional; settings: COLO 320
[24] = cytotoxicity in OV-90 ovarian cancer cells, dose response, PAX8 inhibitor project, cell-based, plate reader, dry powder, SA8 (AID 743149); assay type: functional
INS1 = assay: beta cell apoptosis inhibitors, cytokine rescue, dose response, luminescence, retest (AID 449756); assay type: functional, cell-based; settings: Rattus norvegicus;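 also: cell death triggered by IL-1 beta plus TNF-alpha plus IFN-gamma mixture; protective hits raise ATP signal compared with cytokine alone wells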
[25] = cytotoxicity toward NIH3T3 fibroblasts, dose response, counter-screen, cell-based, ATP luminescence, mouse fibroblasts (AID 2010); assay type: functional;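 also: cells exposed to compound for about 90 hours before reading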
[26] = Concentration-dependent survival of SW480 colon cancer line, luminescence detection with CellTiter-Glo, half-maximal inhibitory concentration (AID 1117338); assay type: functional
[27] = A2780 ovarian cancer cell cytotoxicity, dose response, cytotoxicity control, plate reader, dry powder samples (AID 743046); assay type: functional, cell-based
[28] = molecular target: Heat shock protein HSP 90-alpha (Homo sapiens, UniProt P07900); assay: Luminescence-based dose response biochemical high throughput screening assay for inhibitors of the Heat Shock Protein 90 (HSP90). [Related pubchem assays: 1831 (Summary AID.), 1846 (Confirmation screen.), 1789 (Primary screen.)]

Sequence of Glyceraldehyde-3-phosphate dehydrogenase (P04406 whole entry): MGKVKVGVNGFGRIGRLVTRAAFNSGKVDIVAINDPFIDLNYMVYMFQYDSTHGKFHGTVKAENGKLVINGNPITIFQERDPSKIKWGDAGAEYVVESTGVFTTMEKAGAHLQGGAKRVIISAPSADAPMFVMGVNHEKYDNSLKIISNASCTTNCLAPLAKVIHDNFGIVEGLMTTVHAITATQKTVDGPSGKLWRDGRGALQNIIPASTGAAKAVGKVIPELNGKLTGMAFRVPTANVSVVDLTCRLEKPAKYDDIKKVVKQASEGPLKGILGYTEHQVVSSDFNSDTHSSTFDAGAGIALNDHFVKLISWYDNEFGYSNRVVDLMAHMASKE

For `O=C(Nc1nncs1)c1c(F)c(F)c(F)c(F)c1F`, the IC50 [1] was > 100 µM (not active).

For `CCOc1ccc(OCc2ccc(C(=O)OCc3ccccn3)o2)cc1`, the IC50 [2] was > 100 µM (not active), the EC50 (HT-1080) was > 50 µM (not active) and the IC50 (cells) was 36 µM (active).

With `N=C(NCCCCCCNC(=N)NC(=N)Nc1ccc(Cl)cc1)NC(=N)Nc1ccc(Cl)cc1` [CHLORHEXIDINE] the IC50 [3] was 3.79 µM (active), the AC50 [4] was 13.8 µM (active) and the AC50 [5] was 33.9 µM (active). The AC50 [6] was 21.6 µM (active), the AC50 [7] was 15.6 µM (active) and the AC50 [8] was 12.5 µM (active). The IC50 [9] was > 10 µM (inactive), the IC50 [10] was 31.8 µM (inactive) and the IC50 [11] was 2.8 µM (active). For the same molecule, the EC50 [12] was 0.178 µM (active), the IC50 [13] was 10.3 µM (inactive) and the AC50 [14] was 13.6 µM (active). The IC50 [15] was > 10 µM (inactive), the AC50 [16] was 16.4 µM (active) and the IC50 [17] was 25.2 µM (inactive). For the same molecule, the AC50 [18] was 12.2 µM (active), the IC50 [19] was 4.58 µM (active) and the IC50 [20] was 26.2 µM (inactive). For the same molecule, the CC50 (Vero) was 8.43 µM (active), the IC50 [21] was 0.439 µM (active) and the IC50 [22] was 4.39 µM (active). The IC50 [23] was 5.16 µM (inactive), the AC50 [24] was 20 µM (active) and the AC50 (INS1) was 4.67 µM (active). For the same molecule, the EC50 ([25]; nih3t3) was 6.74 µM (active), the IC50 [26] was 5.67 µM (inactive) and the AC50 [27] was 13.9 µM (active).

For `CC(=O)Nc1ccc(OS(=O)(=O)c2ccc([N+](=O)[O-])cc2)cc1`, the EC50 [12] was 1.56 µM (active), the IC50 [28] was 3.75 µM (active) and the EC50 ([25]; NIH3T3) was > 60 µM (not active).
